Measurements reported in US8138183B2, “Morpholino pyrimidine derivatives used in diseases linked to mTOR kinase and/or PI3K” (AstraZeneca AB, priority 2007, dated 2012).
Like-named read-outs stand apart in the source and are kept apart here.

Experiments:
recombinant mTOR = recombinant mTOR (Homo sapiens, UniProt P42345); assay: In Vitro mTOR Kinase Assay (Echo), Test (a)(ii) (AlphaScreen); format: biochemical; conditions: Echo acoustic dispensing
Protocol: (a)(ii) In Vitro mTOR Kinase Assay (Echo)
The assay used AlphaScreen technology (Gray et al., Analytical Biochemistry, 2003, 313: 234-245) to determine the ability of test compounds to inhibit phosphorylation by recombinant mTOR.
The HEK293 FLAG-tagged mTOR (1362-2549) stable cell line was routinely maintained at 37° C. with 5% CO2 up to a confluency of 70-90% in Dulbecco's modified Eagle's growth medium (DMEM; Invitrogen Limited, Paisley, UK Catalogue No. 41966-029) containing 10% heat-inactivated foetal calf serum (FCS; Sigma, Poole, Dorset, UK, Catalogue No. F0392), 1% L-glutamine (Gibco, Catalogue No. 25030-024) and 2 mg/ml Geneticin (G418 sulfate; Invitrogen Limited, UK Catalogue No. 10131-027). Following expression in the mammalian HEK293 cell line, expressed protein was purified using the FLAG epitope tag using standard purification techniques.
Aliquots ([…]) of each compound dilution were acoustically […] using a Labcyte Echo 550 into a well of a Greiner 384-well low volume (LV) white polystyrene plate (Greiner Bio-one). A […] mixture of recombinant purified mTOR enzyme, 1 μM biotinylated peptide substrate (Biotin-Ahx-[…]NH2; Bachem UK Ltd), ATP (20 μM) and a buffer solution [comprising Tris-HCl pH7.4 buffer (50 mM), EGTA (0.1 mM), bovine serum albumin (0.5 mg/mL), DTT (1.25 mM) and manganese chloride (10 mM)] was incubated at room temperature for […].
These assay solutions were incubated for 2 hours at room temperature.
Each reaction was stopped by the addition of […] of a mixture of EDTA (50 mM), bovine serum albumin (BSA; 0.5 mg/mL) and Tris-HCl pH7.4 buffer (50 mM) containing
p70 S6 Kinase (T389) 1A5 Monoclonal Antibody (Cell Signalling Technology, Catalogue No. 9206B) and AlphaScreen Streptavidin donor and Protein A acceptor beads (200 ng; Perkin Elmer, Catalogue No. 6760002B and 6760137R respectively) were added and the assay plates were left overnight at room temperature in the dark. The resultant signals arising from laser light excitation at 680 nm were read using a Packard Envision instrument.
The phosphorylated biotinylated peptide that is associated with AlphaScreen Streptavidin donor beads forms a complex with the p70 S6 Kinase (T389) 1A5 Monoclonal Antibody that is associated with Alphascreen Protein A acceptor beads. Upon laser light excitation at 680 nm, the donor bead : acceptor bead complex produces a signal that can be measured. Accordingly, the presence of mTOR kinase activity results in an assay signal. In the presence of an mTOR kinase inhibitor, signal strength is reduced. mTOR enzyme inhibition for a given test compound was expressed as an IC50 value.

[1] = test system: phosphorylation of Serine 473 in Akt; assay: In Vitro phospho-Ser473 Akt Assay, Test (c); format: cell-based; conditions: MDA-MB-468 human breast adenocarcinoma cells, measured on two occasions, read-out: IC50 versus Serine 473 in Akt
Protocol: (c) In Vitro phospho-Ser473 Akt Assay
This assay determines the ability of test compounds to inhibit phosphorylation of Serine 473 in Akt as assessed using Acumen Explorer technology (Acumen Bioscience Limited), a plate reader that can be used to rapidly quantitate features of images generated by laser-scanning.
A MDA-MB-468 human breast adenocarcinoma cell line (LGC Promochem, Teddington, Middlesex, UK, Catalogue No. HTB-132) was routinely maintained at 37° C. with 5% CO2 up to a confluency of 70-90% in DMEM containing 10% heat-inactivated FCS and 1% L-glutamine.
For the assay, the cells were detached from the culture flask using ‘Accutase’ (Innovative Cell Technologies Inc., San Diego, Calif., USA; Catalogue No. AT104) using standard tissue culture methods and resuspended in media to give 1.7×10^5 cells per mL. […]
All subsequent aspiration and wash steps were carried out using a Tecan 96 well plate washer (aspiration speed 10 mm/sec). […] An aliquot of PBS (50 μl) was added to each well and the plates were sealed with black plate sealers and the fluorescence signal was detected and analysed.
Fluorescence dose response data obtained with each compound were analysed and the degree of inhibition of Serine 473 in Akt was expressed as an IC50 value.

Sequence of recombinant mTOR (P42345 1362-2549): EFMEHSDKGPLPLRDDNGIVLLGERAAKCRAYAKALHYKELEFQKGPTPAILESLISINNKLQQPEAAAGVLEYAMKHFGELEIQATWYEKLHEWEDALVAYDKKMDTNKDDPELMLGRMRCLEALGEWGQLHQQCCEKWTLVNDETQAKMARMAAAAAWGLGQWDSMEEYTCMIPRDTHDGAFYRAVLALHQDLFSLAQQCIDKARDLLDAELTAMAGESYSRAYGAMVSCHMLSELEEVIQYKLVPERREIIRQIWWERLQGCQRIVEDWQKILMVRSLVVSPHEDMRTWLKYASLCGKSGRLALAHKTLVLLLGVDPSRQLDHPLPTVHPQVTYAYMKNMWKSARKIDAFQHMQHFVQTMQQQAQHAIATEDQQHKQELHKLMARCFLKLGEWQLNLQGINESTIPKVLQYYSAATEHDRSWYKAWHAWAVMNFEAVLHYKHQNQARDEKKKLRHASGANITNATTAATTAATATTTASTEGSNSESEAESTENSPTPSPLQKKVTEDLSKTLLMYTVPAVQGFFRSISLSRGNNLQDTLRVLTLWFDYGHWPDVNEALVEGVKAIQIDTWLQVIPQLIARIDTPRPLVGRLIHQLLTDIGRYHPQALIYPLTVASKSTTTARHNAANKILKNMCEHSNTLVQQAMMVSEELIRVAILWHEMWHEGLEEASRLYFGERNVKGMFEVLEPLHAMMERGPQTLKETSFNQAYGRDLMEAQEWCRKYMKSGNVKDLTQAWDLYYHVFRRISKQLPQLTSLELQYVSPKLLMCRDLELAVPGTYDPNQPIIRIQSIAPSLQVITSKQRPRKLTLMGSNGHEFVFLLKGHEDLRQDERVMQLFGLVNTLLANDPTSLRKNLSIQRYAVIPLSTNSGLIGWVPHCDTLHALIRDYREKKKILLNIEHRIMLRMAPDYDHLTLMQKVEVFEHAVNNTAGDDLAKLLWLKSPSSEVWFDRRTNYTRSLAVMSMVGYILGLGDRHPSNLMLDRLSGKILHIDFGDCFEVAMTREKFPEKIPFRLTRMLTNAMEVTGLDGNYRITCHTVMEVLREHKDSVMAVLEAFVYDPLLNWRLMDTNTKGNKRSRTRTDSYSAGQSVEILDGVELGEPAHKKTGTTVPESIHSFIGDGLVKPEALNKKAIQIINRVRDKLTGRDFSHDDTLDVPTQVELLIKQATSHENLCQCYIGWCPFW

C[C@H]1COCCN1c1cc(CS(C)(=O)=O)nc(-c2ccc(NC(=S)Nc3ccccc3)cc2)n1 [Example 1b, 1-[4-[4-[(3S)-3-methylmorpholin-4-yl]-6-(methylsulfonylmethyl)pyrimidin-2-yl]phenyl]-3-phenyl-thiourea]
IC50 (recombinant mTOR): 81.6 nM
IC50 ([1]; Homo sapiens, MDA-MB-468, Test (c)): 1930 nM
IC50 ([1]; Test (c)): 1740 nM
